Values quoted from earlier work in patent publication US10471038B2, “Inhibitor of muscle damage or muscle fatigue” ([…] LABORATORY, CO., LTD., priority 2015, dated 2019).

Test system: calpain
Conditions: mdx mice, intramuscular injection

CC(=O)N[C@@H](CC(C)C)C(=O)N[C@@H](CC(C)C)C(=O)N[C@H](C=O)CCCNC(=N)N [leupeptin]
activation of calpain in muscle tissue and muscle breakdown: inhibited
